Experimental data published in paper PMC9988422, “Usefulness of a humanized tricellular static transwell blood–brain barrier model as a microphysiological system for drug development applications. - A case study based on the benchmark evaluations of blood-brain barrier microphysiological system” (Regenerative Therapy, 2023).

How the values were obtained:
[1] = system: human in vitro BBB model (HBMEC/ci18, HBPC/ci37, HASTR/ci35); assay: Permeability assay with permeable and nonpermeable compounds in the human in vitro BBB model
Description: (§1) In vitro human BBB models were developed by combining three immortalized cell lines). Briefly, HBPC/ci37 cells were seeded on the bottom side of the collagen IV- and Fibronectin-coated polycarbonate membrane of a transwell insert (Millicell cell culture insert 24-well hanging inserts, 0.4 μm […]; Merck, Darmstadt, Germany) at a density of 1.0 × 10^4 cells/insert. The cells were then cultured for 1 day to allow them to attach firmly. HASTR/ci35 cells were seeded (5.0 × 10^4 cells/well) on collagen I-coated 24-well plates (Greiner Bio-one, Frickenhausen, Germany) and maintained in astrocyte culture medium. HBPC/ci37 cells were induced to differentiate by replacing the pericyte medium with pericyte differentiation medium, which was consisted of FBS- and blasticidin S-free pericyte medium; HASTR/ci35 cells were induced to differentiate by replacing the astrocyte culture medium with astrocyte differentiation medium, which was consisted of FBS- and blasticidin S-free astrocyte growth medium supplemented with 1 mM adenosine 3′,5′-cyclic monophosphate sodium salt monohydrate. After the differentiation media were added, both cell lines were cultured at 37 °C for 24 h. To start a coculture, HBMEC/ci18 cells were seeded on the inner side of the HBPC/ci37 cell culture insert at a density of 1.0 × 10^5 cells. […]

[2] = target: T1, Glut1 (Homo sapiens, UniProt P11166); assay: Bidirectional transport assay in the human in vitro BBB model, Glut1 substrate; assay type: in vitro ADME; settings: 2-NBDG 100 μg/ml
T1 construct: endogenous in cells; host or cells: HBMEC/ci18 co-cultured with HBPC/ci37 and HASTR/ci35 (transwell)
T1 sequence (P11166 1-492): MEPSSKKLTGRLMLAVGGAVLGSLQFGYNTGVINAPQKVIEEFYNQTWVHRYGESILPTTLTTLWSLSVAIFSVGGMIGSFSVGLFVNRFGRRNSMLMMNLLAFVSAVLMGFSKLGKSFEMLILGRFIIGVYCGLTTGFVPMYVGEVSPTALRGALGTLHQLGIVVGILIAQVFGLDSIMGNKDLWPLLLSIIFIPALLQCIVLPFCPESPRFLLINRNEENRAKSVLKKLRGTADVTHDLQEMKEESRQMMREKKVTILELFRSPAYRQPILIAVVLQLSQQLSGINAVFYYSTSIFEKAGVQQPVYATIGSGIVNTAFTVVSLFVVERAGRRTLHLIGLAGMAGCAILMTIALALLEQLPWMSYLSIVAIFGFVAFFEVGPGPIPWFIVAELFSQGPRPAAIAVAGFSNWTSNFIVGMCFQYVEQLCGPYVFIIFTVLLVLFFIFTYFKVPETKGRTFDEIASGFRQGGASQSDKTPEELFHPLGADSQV
Description: as §1

[3] = Permeability assay with permeable and nonpermeable compounds in the human in vitro BBB model; settings: human
Description: as §1

Lucifer Yellow
Pe value (permeability coefficient) [1]: 90.2 ± 23.1 × 10^−6 cm/s

O=[N+]([O-])c1ccc(N[C@H]2C(O)O[C@H](CO)[C@@H](O)[C@@H]2O)c2nonc12 (stereo partly shown) [2-NBDG]
Efflux Ratio Mean ([2]; mean of 4 independent experiments): 1.1 | Efflux Ratio (Pe (B to A)/Pe (A to B)) ([2]; single independent experiment): 1.01

Cn1c(=O)c2c(ncn2C)n(C)c1=O [caffeine]
Papp at 5 μM [3]: 1160 ± 492 ×10⁻⁶ cm/s
